Laboratory results as given in patent US20230151025A1, “SUBSTITUTED THIAZOLOPYRIDINES, SALTS THEREOF AND THEIR USE AS HERBICIDALLY ACTIVE SUBSTANCES” (Bayer Aktiengesellschaft, priority 2020, published 2023).

Legend:
Format in all cases: in vivo
[1] = system: Abutilon theophrasti (ABUTH); experiment: Herbicidal post-emergence action (B), 1280 g/ha; conditions: rated visually after about 3 weeks vs untreated controls
Summary of the method: (§1)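 Percent activity is a visual score taken about 3 weeks after treatment, relative to untreated plants, where 100% means the plants died and 0% means no difference from controls. Plants were sprayed on green parts at the one-leaf stage with an aqueous suspension or emulsion containing 0.5% additive at 600 L/ha.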

[2] = system: Alopecurus myosuroides (ALOMY); experiment: Herbicidal post-emergence action (B), 1280 g/ha; conditions: rated visually after about 3 weeks vs untreated controls
Summary of the method: as §1

[3] = system: Amaranthus retroflexus (AMARE); experiment: Herbicidal post-emergence action (B), 1280 g/ha; conditions: rated visually after about 3 weeks vs untreated controls
Summary of the method: as §1

[4] = system: Digitaria sanguinalis (DIGSA); experiment: Herbicidal post-emergence action (B), 1280 g/ha; conditions: rated visually after about 3 weeks vs untreated controls
Summary of the method: as §1

[5] = system: Echinochloa crus-galli (ECHCG); experiment: Herbicidal post-emergence action (B), 1280 g/ha; conditions: rated visually after about 3 weeks vs untreated controls
Summary of the method: as §1

[6] = system: Kochia scoparia (KCHSC; Bassia scoparia); experiment: Herbicidal post-emergence action (B), 1280 g/ha
Summary of the method: as §1

Lolium rigidum (LOLRI) [7] = experiment: Herbicidal post-emergence action (B), 1280 g/ha; conditions: one-leaf stage, rated after about 3 weeks vs untreated controls, 100% activity = the plants have died, 0% = like control plants
Summary of the method: as §1

Poa annua (POAAN) = experiment: Herbicidal post-emergence action (B), 1280 g/ha; conditions: rated visually after about 3 weeks vs untreated controls
Summary of the method: as §1

Setaria viridis (SETVI) [8] = experiment: Herbicidal post-emergence action (B), 1280 g/ha; conditions: rated visually after about 3 weeks vs untreated controls
Summary of the method: as §1

Stellaria media (STEME) = experiment: Herbicidal post-emergence action (B), 1280 g/ha
Summary of the method: as §1

Veronica persica (VERPE) [9] = experiment: Herbicidal post-emergence action (B), 1280 g/ha
Summary of the method: as §1

[10] = system: Alopecurus myosuroides (ALOMY); experiment: Herbicidal pre-emergence action (C), 320 g/ha; conditions: ca. 3 weeks
Summary of the method: (§2)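 Seeds sown in sandy loam and covered with soil; compounds formulated as WP or EC were sprayed onto the covering soil as aqueous suspension/emulsion with 0.5% additive at 600 l water/ha. Pots kept in greenhouse; damage graded visually after ca. 3 weeks versus untreated controls (0% = as control, 100% = plants dead).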

[11] = system: Amaranthus retroflexus (AMARE); experiment: Herbicidal pre-emergence action (C), 320 g/ha; conditions: ca. 3 weeks
Summary of the method: as §2

[12] = system: Echinochloa crus-galli (ECHCG); experiment: Herbicidal pre-emergence action (C), 320 g/ha; conditions: ca. 3 weeks
Summary of the method: as §2

Lolium rigidum (LOLRI) [13] = experiment: Herbicidal pre-emergence action (C), 320 g/ha; conditions: ca. 3 weeks
Summary of the method: as §2

Setaria viridis (SETVI) [14] = experiment: Herbicidal pre-emergence action (C), 320 g/ha; conditions: ca. 3 weeks
Summary of the method: as §2

Veronica persica (VERPE) [15] = experiment: Herbicidal pre-emergence action (C), 320 g/ha; conditions: ca. 3 weeks
Summary of the method: as §2

[16] = system: Alopecurus myosuroides (ALOMY); experiment: Herbicidal post-emergence action (D), 320 g/ha; conditions: ca. 3 weeks
Summary of the method: (§3)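 Post-emergence greenhouse test. Sandy loam; spray at single-leaf stage (2–3 wk after sowing); WP or EC in water + 0.5% additive, 600 l/ha. Visual rating ~3 wk post-spray, % effect vs untreated (0 = control, 100 = dead).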

[17] = system: Amaranthus retroflexus (AMARE); experiment: Herbicidal post-emergence action (D), 320 g/ha; conditions: ca. 3 weeks
Summary of the method: as §3

[18] = system: Echinochloa crus-galli (ECHCG); experiment: Herbicidal post-emergence action (D), 320 g/ha; conditions: ca. 3 weeks
Summary of the method: as §3

[19] = system: Polygonum convolvulus (POLCO); experiment: Herbicidal post-emergence action (D), 320 g/ha; conditions: ca. 3 weeks
Summary of the method: as §3

Veronica persica (VERPE) [20] = experiment: Herbicidal post-emergence action (D), 320 g/ha; conditions: ca. 3 weeks
Summary of the method: as §3

Structure (SMILES) | herbicidal activity ABUTH [1] [%] | herbicidal activity ALOMY [2] [%] | herbicidal activity AMARE [3] [%] | herbicidal activity ECHCG [5] [%] | herbicidal effect KCHSC [6] [%] | LOLRI, activity rated visually (%) (Lolium rigidum (LOLRI) [7]) | herbicidal activity POAAN (Poa annua (POAAN)) [%] | herbicidal activity SETVI (Setaria viridis (SETVI) [8]) [%] | herbicidal effect STEME (Stellaria media (STEME)) [%] | herbicidal effect VERPE (Veronica persica (VERPE) [9]) [%] | herbicidal effect ALOMY [10] [%] | herbicidal effect AMARE [11] [%] | herbicidal effect ECHCG [12] [%] | herbicidal effect LOLRI (Lolium rigidum (LOLRI) [13]) [%] | herbicidal effect SETVI (Setaria viridis (SETVI) [14]) [%] | herbicidal effect VERPE (Veronica persica (VERPE) [15]) [%] | herbicidal effect ALOMY [16] [%] | herbicidal effect AMARE [17] [%] | herbicidal effect ECHCG [18] [%] | herbicidal effect VERPE (Veronica persica (VERPE) [20]) [%] | other results
Fc1ccccc1-c1nc2ncsc2cc1Cl [Example I-017] | 90 | 100 | 90 | 100 | 90 | 100 | 100 | 100 | 100 | 90 | 100 | 90 | 100 | 100 | 100 | 90 | 90 | 100 | 80 | 90 | herbicidal activity DIGSA [4]: 100%; herbicidal effect POLCO [19]: 90%
CCc1cc2scnc2nc1-c1ccccc1F [Example I-023] | 100 | 100 | 100 | 100 | 90 | 100 | 100 | 100 | 100 | 90 | 100 | 80 | 100 | 100 | 100 | 90 | 90 | 100 | 90 | 90 | herbicidal activity DIGSA [4]: 100%; herbicidal effect POLCO [19]: 90%
CCc1cc2scnc2nc1-c1ccc(F)cc1F [Example I-030] | 100 | 90 | 100 | 100 | 100 | 90 | 100 | 90 | 90 | 90 | 100 | 90 | 100 | 100 | 100 | 90 | 80 |  |  | 90 | herbicidal activity DIGSA [4]: 100%; herbicidal effect POLCO [19]: 90%
Fc1ccccc1-c1ccc2scnc2n1 [Example I-036, 5-(2-fluorophenyl)thiazolo[4,5-b]pyridine] |  |  | 100 | 100 |  | 100 | 100 | 100 | 100 |  | 100 | 100 | 100 | 100 | 100 | 90 |  |  | 80 |  | herbicidal effect POLCO [19]: 80%
Cc1cc2scnc2nc1-c1ccccc1 [Example I-041] | 100 | 100 | 100 | 100 | 100 | 100 | 100 | 100 | 100 | 100 | 100 | 90 | 100 | 100 | 100 | 90 | 90 | 90 | 100 | 90 | herbicidal activity DIGSA [4]: 100%; herbicidal effect POLCO [19]: 90%
Cc1cc2scnc2nc1-c1ccccc1Cl [Example I-045] | 90 | 100 | 90 | 100 | 90 | 90 | 100 | 100 | 100 | 90 | 100 | 90 | 100 | 100 | 100 | 90 | 90 | 100 | 90 | 90 | herbicidal effect POLCO [19]: 90%
CCc1cc2scnc2nc1-c1ccccc1C [Example I-093] | 100 | 100 | 100 | 100 | 100 | 100 | 100 | 100 | 100 | 100 | 100 | 90 | 100 | 100 | 100 | 90 | 90 | 90 |  | 90 | herbicidal activity DIGSA [4]: 100%
Cc1cc2scnc2nc1-c1sccc1C [Example I-143] | 100 | 100 | 100 | 100 | 100 | 100 | 100 | 90 | 100 | 100 | 100 | 90 | 100 | 100 | 100 | 90 | 90 | 80 | 80 | 80 | 
Fc1ccccc1-c1nc2ncsc2cc1I [Example I-188] |  |  | 100 | 90 | 90 | 90 | 90 | 90 | 90 |  | 100 | 90 | 100 | 100 | 100 | 90 | 90 | 90 | 100 | 90 | herbicidal effect POLCO [19]: 80%
Cc1cc2scnc2nc1-c1ccsc1C [Example I-194] | 90 | 100 | 100 | 100 | 100 | 100 | 100 |  | 100 | 100 | 100 | 90 | 100 | 100 | 100 | 80 | 90 | 80 | 90 |  | 
